19 molecules from US11566030B2, “Substituted 2,6-dihydropyrrolo[3,4-c]pyrazoles as pyruvate kinase activators” (priority 2021, dated 2023) can be followed below.

Like-named read-outs stand apart in the source and are kept apart here.

For this assay, the target named is T1, Human pyruvate kinase R (PKR) (Homo sapiens, UniProt P30613).
T1 construct: Human pyruvate kinase R (PKR), residues 14-574; 6xHis-8xArg-SUMO (N, cleaved yes); host or cells: E. coli
The assay is described as follows: Biochemical assay for activation of pyruvate kinase R (Kinase-Glo luminescence, ATP generation). The conditions noted are these: for Emax: read-out: PKR % activation, maximal activation level achieved with each compound relative to the activation level achieved by AG-348 @ 10 μM. In outline: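 Recombinant human PKR (residues 14-574) expressed in E. coli with His-Arg-SUMO tag, tag cleaved, purified by Ni-NTA, anion exchange and size exclusion. Activation read as ATP generation by Kinase-Glo luminescence.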

Setting [1] is: PKR AC50 (nM), 0.1 nM PKR, 0.3 mM ADP, 0.1 mM PEP, 1% DMSO.

T1 sequence (P30613 14-574): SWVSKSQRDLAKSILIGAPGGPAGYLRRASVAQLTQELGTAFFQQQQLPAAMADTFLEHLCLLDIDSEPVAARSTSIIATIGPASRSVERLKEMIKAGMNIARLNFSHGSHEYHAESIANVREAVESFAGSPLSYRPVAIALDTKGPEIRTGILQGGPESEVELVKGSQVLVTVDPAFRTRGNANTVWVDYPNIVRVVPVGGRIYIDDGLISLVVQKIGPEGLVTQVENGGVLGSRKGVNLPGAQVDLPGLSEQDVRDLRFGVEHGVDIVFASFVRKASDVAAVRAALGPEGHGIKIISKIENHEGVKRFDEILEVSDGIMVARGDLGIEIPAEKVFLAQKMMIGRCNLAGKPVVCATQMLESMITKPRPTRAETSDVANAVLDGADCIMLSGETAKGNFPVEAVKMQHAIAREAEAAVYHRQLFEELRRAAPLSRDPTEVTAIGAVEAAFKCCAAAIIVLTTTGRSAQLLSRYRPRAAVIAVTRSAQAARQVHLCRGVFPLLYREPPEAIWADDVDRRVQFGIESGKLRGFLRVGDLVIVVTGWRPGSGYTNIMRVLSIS

By AC50 is commonly meant the concentration giving half of the maximal activity seen. Regarding `CCn1cc(S(=O)(=O)n2cc3c(n2)CN(C(=O)[C@@H](CO)c2ccccc2)C3)c(C(F)(F)F)n1` [Compound 95, (2R)-1-{2-[1-ethyl-3-(trifluoromethyl)pyrazol-4-ylsulfonyl]-4H,6H-pyrrolo[3,4-c]pyrazol-5-yl}-3-hydroxy-2-phenylpropan-1-one], the Emax is 15%. The AC50 under setting [1] turned out to be 2900 nM.
Turning to `Cc1c(S(=O)(=O)n2cc3c(n2)CN(C(=O)[C@H](CO)c2ccccc2F)C3)cnn1CCF` [Compound 96], the AC50 was determined as 6.4 nM and the Emax stood at 93%.
The corresponding values for `Cc1c(S(=O)(=O)n2cc3c(n2)CN(C(=O)[C@@H](CO)c2ccccc2F)C3)cnn1CCF` [Compound 97, (2R)-1-{2-[1-(2-fluoroethyl)-5-methylpyrazol-4-ylsulfonyl]-4H,6H-pyrrolo[3,4-c]pyrazol-5-yl}-2-(2-fluorophenyl)-3-hydroxypropan-1-one] are 550 nM and 102%.
`Cc1c(S(=O)(=O)n2cc3c(n2)CN(C(=O)[C@H](CO)c2ccccc2Cl)C3)cnn1CCF` [Compound 98, (2S)-2-(2-chlorophenyl)-1-{2-[1-(2-fluoroethyl)-5-methylpyrazol-4-ylsulfonyl]-4H,6H-pyrrolo[3,4-c]pyrazol-5-yl}-3-hydroxypropan-1-one]: the Emax stood at 117%. Under setting [1], this molecule yielded a concentration at half-maximal activity (AC50) of 9.1 nM.
The corresponding values for `Cc1c(S(=O)(=O)n2cc3c(n2)CN(C(=O)[C@@H](CO)c2ccccc2Cl)C3)cnn1CCF` [Compound 99, (2R)-2-(2-chlorophenyl)-1-{2-[1-(2-fluoroethyl)-5-methylpyrazol-4-ylsulfonyl]-4H,6H-pyrrolo[3,4-c]pyrazol-5-yl}-3-hydroxypropan-1-one] are 100% and 410 nM.
Turning to `Cc1c(S(=O)(=O)n2cc3c(n2)CN(C(=O)[C@@H](CO)c2ccccc2F)C3)cnn1CC(F)F` [Compound 100, (R)-1-(2-((1-(2,2-difluoroethyl)-5-methyl-1H-pyrazol-4-yl)sulfonyl)-2,6 dihydropyrrolo[3,4-c]pyrazol-5(4H)-yl)-2-(2-fluorophenyl)-3-hydroxypropan-1-one], the activity was half-maximal at 380 nM (AC50) and the Emax was found to be 126%.
For `Cc1c(S(=O)(=O)n2cc3c(n2)CN(C(=O)[C@H](CO)c2ccccc2Cl)C3)cnn1CC(F)F` [Compound 101, (2S)-2-(2-chlorophenyl)-1-{2-[1-(2,2-difluoroethyl)-5-methylpyrazol-4-ylsulfonyl]-4H,6H-pyrrolo[3,4-c]pyrazol-5-yl}-3-hydroxypropan-1-one], the Emax is 123%. The same molecule registered an AC50 under setting [1] of 8.5 nM.
The corresponding values for `Cc1c(S(=O)(=O)n2cc3c(n2)CN(C(=O)[C@@H](CO)c2ccccc2Cl)C3)cnn1CC(F)F` [Compound 102, (2R)-2-(2-chlorophenyl)-1-{2-[1-(2,2-difluoroethyl)-5-methylpyrazol-4-ylsulfonyl]-4H,6H-pyrrolo[3,4-c]pyrazol-5-yl}-3-hydroxypropan-1-one] are 126% and 690 nM.
Take `COc1ccccc1[C@@H](CO)C(=O)N1Cc2cn(S(=O)(=O)c3cnn(CC(F)F)c3C)nc2C1` [Compound 103, (2S)-1-{2-[1-(2,2-difluoroethyl)-5-methylpyrazol-4-ylsulfonyl]-4H,6H-pyrrolo[3,4-c]pyrazol-5-yl}-3-hydroxy-2-(2-methoxyphenyl)propan-1-one]: the Emax amounted to 101%. Half-maximal activity under setting [1] (AC50) was put at 26 nM.
The corresponding values for `COc1ccccc1[C@H](CO)C(=O)N1Cc2cn(S(=O)(=O)c3cnn(CC(F)F)c3C)nc2C1` [Compound 104, (2R)-1-{2-[1-(2,2-difluoroethyl)-5-methylpyrazol-4-ylsulfonyl]-4H,6H-pyrrolo[3,4-c]pyrazol-5-yl}-3-hydroxy-2-(2-methoxyphenyl)propan-1-one] are 121% and 560 nM.
The corresponding values for `CCc1ccccc1[C@@H](CO)C(=O)N1Cc2cn(S(=O)(=O)c3cnn(CC(F)F)c3)nc2C1` [Compound 105, (S)-1-(2-((1-(2,2-difluoroethyl)-1H-pyrazol-4-yl)sulfonyl)-2,6-dihydropyrrolo[3,4-c]pyrazol-5(4H)-yl)-2-(2-ethylphenyl)-3-hydroxypropan-1-one] are 67% and 74 nM.
For `CCc1ccccc1[C@H](CO)C(=O)N1Cc2cn(S(=O)(=O)c3cnn(CC(F)F)c3)nc2C1` [Compound 106, (R)-1-(2-((1-(2,2-difluoroethyl)-1H-pyrazol-4-yl)sulfonyl)-2,6-dihydropyrrolo[3,4-c]pyrazol-5(4H)-yl)-2-(2-ethylphenyl)-3-hydroxypropan-1-one], the Emax was 189%. Also, the AC50 under setting [1] was 210 nM.
The corresponding values for `O=C([C@H](CO)c1ccccc1Cl)N1Cc2cn(S(=O)(=O)c3ncn(CC(F)F)n3)nc2C1` [Compound 107, (2S)-2-(2-chlorophenyl)-1-{2-[1-(2,2-difluoroethyl)-1,2,4-triazol-3-ylsulfonyl]-4H,6H-pyrrolo[3,4-c]pyrazol-5-yl}-3-hydroxypropan-1-one] are 89% and 53 nM.
The corresponding values for `O=C([C@@H](CO)c1ccccc1Cl)N1Cc2cn(S(=O)(=O)c3ncn(CC(F)F)n3)nc2C1` [Compound 108, (2R)-2-(2-chlorophenyl)-1-{2-[1-(2,2-difluoroethyl)-1,2,4-triazol-3-ylsulfonyl]-4H,6H-pyrrolo[3,4-c]pyrazol-5-yl}-3-hydroxypropan-1-one] are 62% and 3300 nM.
Take `CCn1ncc(S(=O)(=O)n2cc3c(n2)CN(C(=O)[C@H](CO)c2ccccc2)C3)c1C(F)(F)F` [Compound 111, (2S)-1-{2-[1-ethyl-5-(trifluoromethyl)pyrazol-4-ylsulfonyl]-4H,6H-pyrrolo[3,4-c]pyrazol-5-yl}-3-hydroxy-2-phenylpropan-1-one]: the Emax came out at 42%. The same molecule came in with an AC50 under setting [1] of 1600 nM.
The corresponding values for `CCn1ncc(S(=O)(=O)n2cc3c(n2)CN(C(=O)[C@@H](CO)c2ccccc2)C3)c1C(F)(F)F` [Compound 112, (2R)-1-{2-[1-ethyl-5-(trifluoromethyl)pyrazol-4-ylsulfonyl]-4H,6H-pyrrolo[3,4-c]pyrazol-5-yl}-3-hydroxy-2-phenylpropan-1-one] are 174% and 3100 nM.
As for `O=C([C@H](CO)c1ccccc1)N1Cc2cn(S(=O)(=O)c3cnn(C4CCOC4)c3)nc2C1` (stereo partly drawn) [Compound 113, (2S)-3-hydroxy-1-(2-{[1-(oxolan-3-yl)-1H-pyrazol-4-yl]sulfonyl}-2H,4H,5H,6H-pyrrolo[3,4-c]pyrazol-5-yl)-2-phenylpropan-1-one], half-maximal activity (AC50) was put at 24 nM and the Emax amounted to 47%.
For the molecule `COC(C(=O)N1Cc2cn(S(=O)(=O)c3cnn(CC(F)F)c3)nc2C1)c1ccccc1F` (centres unmarked) [Compound 114], the Emax is 134%. Further, the activity under setting [1] was half-maximal at 320 nM (AC50).
For `COC(C(=O)N1Cc2cn(S(=O)(=O)c3cnn(CC(F)F)c3)nc2C1)c1ncccc1F` (centres unmarked) [Compound 115, 1-(2-{[1-(2,2-difluoroethyl)-1H-pyrazol-4-yl]sulfonyl}-2H,4H,5H,6H-pyrrolo[3,4-c]pyrazol-5-yl)-2-(3-fluoropyridin-2-yl)-2-methoxyethan-1-one], the half-maximal activity concentration (AC50) came to 2100 nM and the Emax was 96%.
